Read-outs that look alike come from different tables or passages of the source.

The target of test [1] is T1, PTH receptor (Canis lupus familiaris, UniProt Q9TU31).
T1 construct: canine renal plasma membranes; from tissue; host or cells: canine kidney (renal plasma membranes)
T1 sequence (Q9TU31 29-595): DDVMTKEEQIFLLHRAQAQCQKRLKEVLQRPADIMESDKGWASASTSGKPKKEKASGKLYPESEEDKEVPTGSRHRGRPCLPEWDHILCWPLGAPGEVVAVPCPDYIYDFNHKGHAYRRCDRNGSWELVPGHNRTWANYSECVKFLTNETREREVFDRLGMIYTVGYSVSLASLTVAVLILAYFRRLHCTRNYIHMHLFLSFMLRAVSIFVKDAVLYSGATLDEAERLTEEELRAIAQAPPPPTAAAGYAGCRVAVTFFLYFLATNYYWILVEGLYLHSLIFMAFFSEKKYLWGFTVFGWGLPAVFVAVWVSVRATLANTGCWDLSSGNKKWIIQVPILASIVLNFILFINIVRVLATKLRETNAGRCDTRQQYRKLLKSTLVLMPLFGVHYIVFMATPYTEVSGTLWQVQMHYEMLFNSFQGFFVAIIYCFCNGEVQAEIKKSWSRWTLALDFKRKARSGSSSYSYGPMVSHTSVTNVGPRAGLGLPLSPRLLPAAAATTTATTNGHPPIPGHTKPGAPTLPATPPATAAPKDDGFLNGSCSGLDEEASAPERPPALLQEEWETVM
The format is biochemical, canine. The following applies: for RENAL MEMBRANES Canine Activity (AC): Table 5B, hPTH(1-34) = 100. How it is done:
(§1) Receptor binding assays were carried out in canine renal plasma membranes and in UMR 106-H5 rat osteosarcoma cells as previously described in detail (Ref. 14,32), using ^125 I-labeled PTH(1-34)amide as the radioligand. Binding potency (IC50) was quantified as the concentration of unlabeled peptide required for half-maximal displacement of the radioligand. […] Adenylate cyclase activity was assessed in canine renal membranes by the conversion of [α-32p ] ATP to [^32 P] cyclic AMP, essentially as described, except for the addition of 100 micromolar GTP (Ref. 33,34). Adenylate cyclase activity in UMR 106-H5 cells was assessed essentially as described (Ref. 35). In brief, cells were incubated with [3H]adenine 1 micro Ci/ml of serum-free MEM for two hours at 37° C. to label the endogenous ATP pool. Cells were then exposed to 0.4 mM IBMX for 10 min, followed by the appropriate peptide for an additional 10 min at ambient temperature. The cells are then scraped in 20% TCA, and [3H]cyclic AMP is isolated by the column procedure of Salomon et al. (Ref. 36). Potency in the adenylate cyclase assays (Ka) is the concentration of peptide producing half-maximal enzyme activation.

The target of test [2] is T2, PTH receptor (Homo sapiens, UniProt Q03431).
T2 sequence (Q03431 27-593): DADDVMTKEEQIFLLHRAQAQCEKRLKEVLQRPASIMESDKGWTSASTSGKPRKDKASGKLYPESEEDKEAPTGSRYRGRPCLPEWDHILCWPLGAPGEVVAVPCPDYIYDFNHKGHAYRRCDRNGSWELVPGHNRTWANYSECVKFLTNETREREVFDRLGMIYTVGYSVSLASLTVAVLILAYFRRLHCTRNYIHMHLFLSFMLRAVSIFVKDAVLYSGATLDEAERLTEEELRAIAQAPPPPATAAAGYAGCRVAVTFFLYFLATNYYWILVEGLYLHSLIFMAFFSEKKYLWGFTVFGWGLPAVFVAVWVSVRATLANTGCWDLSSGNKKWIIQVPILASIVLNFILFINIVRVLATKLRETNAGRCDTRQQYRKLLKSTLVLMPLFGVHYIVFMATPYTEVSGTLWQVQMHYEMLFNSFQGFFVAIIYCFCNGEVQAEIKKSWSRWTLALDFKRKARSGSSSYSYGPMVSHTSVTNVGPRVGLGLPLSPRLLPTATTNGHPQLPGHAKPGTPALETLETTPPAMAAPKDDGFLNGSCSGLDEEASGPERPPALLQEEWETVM
The format is cell-based. Set-up: In intact rat (UMR-106) and human (SaOS-2) bone cell lines; endogenous in cells; host or cells: SaOS-2 human bone (osteosarcoma) cells. The source says:
The renal membrane assay values listed reflect the effect of the polypeptide analogue with kidney tissue receptors. The UMR-106-H5 assay values reflect the effect of the peptide analogue with rat bone tissue receptors. The Sa05-2 assay values reflect the effect of the peptides for human bone tissue receptors.

Test [3] concerns the target T3, PTH receptor (Rattus norvegicus, UniProt P25961).
T3 construct: endogenous in cells; host or cells: UMR 106-H5 rat osteosarcoma cells
T3 sequence (P25961 27-591): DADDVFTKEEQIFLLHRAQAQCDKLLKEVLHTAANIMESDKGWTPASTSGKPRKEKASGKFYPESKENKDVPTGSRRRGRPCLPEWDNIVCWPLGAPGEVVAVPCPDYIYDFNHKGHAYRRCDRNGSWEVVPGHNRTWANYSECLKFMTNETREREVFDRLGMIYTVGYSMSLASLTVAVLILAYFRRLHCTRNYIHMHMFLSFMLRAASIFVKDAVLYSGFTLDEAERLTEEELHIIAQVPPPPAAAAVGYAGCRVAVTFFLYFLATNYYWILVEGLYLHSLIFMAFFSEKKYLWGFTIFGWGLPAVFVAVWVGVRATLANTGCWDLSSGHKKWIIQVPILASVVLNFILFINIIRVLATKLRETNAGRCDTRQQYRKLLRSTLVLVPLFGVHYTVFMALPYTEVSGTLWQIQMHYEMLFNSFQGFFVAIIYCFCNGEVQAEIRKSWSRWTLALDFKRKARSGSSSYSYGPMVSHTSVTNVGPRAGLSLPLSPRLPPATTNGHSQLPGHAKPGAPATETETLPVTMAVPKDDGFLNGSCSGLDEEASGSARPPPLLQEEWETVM
The format is binding. The protocol:
as §1

The target of test [4] is T2, PTH receptor.
Test [5] deals with PTH receptor.
The target in test [6] is T1, PTH receptor. The test is classed as binding, canine. How it is done: as §1
For test [7], the system named is PTH receptors.
In test [8] the target is T3, PTH receptor. The test is classed as cell-based. The following applies: for BONE CELLS Rat(UMR-106) Activity (AC): Table 5A, intact cells, hPTH(1-34) = 100. How it is done:
as §1, with “Assays were conducted using […] cells. These assays were performed as described in Cohen et al. (1991), J. Biological Chem., 266(3), 1997 and in the Experimental section, e.g. Example 11. Receptor” for “Receptor”

For test [9] the following is noted: cited from earlier work.
Setting [10] is: Table 5A, intact cells, hPTH(1-34) = 100.

As for `CC[C@H](C)[C@H](NC(=O)[C@H](CCC(=O)O)NC(=O)[C@H](Cc1c[nH]cn1)NC(=O)[C@@H](NC(=O)[C@@H](N)CO)C(C)C)C(=O)N[C@@H](CCC(N)=O)C(=O)N[C@@H](CC(C)C)C(=O)N[C@@H](CCSC)C(=O)N[C@@H](Cc1c[nH]cn1)C(=O)N[C@@H](CC(N)=O)C(=O)N[C@@H](CC(C)C)C(=O)NCC(=O)N[C@@H](CCCCN)C(=O)N[C@@H](Cc1c[nH]cn1)C(=O)N[C@@H](CC(C)C)C(=O)N[C@@H](CC(N)=O)C(=O)N[C@@H](CO)C(=O)N[C@@H](CCSC)C(=O)N[C@@H](CCC(=O)O)C(=O)N[C@@H](CCCNC(=N)N)C(=O)N[C@H](C(=O)N[C@@H](CCC(=O)O)C(=O)N[C@@H](Cc1c[nH]c2ccccc12)C(=O)N[C@@H](CC(C)C)C(=O)N[C@@H](CCCNC(=N)N)C(=O)N[C@@H](CCCCN)C(=O)N[C@@H](CCCCN)C(=O)N[C@@H](CC(C)C)C(=O)N[C@@H](CCC(N)=O)C(=O)N[C@@H](CC(=O)O)C(=O)N[C@H](C(=O)N[C@@H](Cc1c[nH]cn1)C(=O)N[C@@H](CC(N)=O)C(=O)N[C@@H](Cc1ccccc1)C(=O)O)C(C)C)C(C)C` [[his^3]hPTH(1-34), [his^3]HPTH(1-34)], in test [1], the “RENAL MEMBRANES Canine Potency (AC)” value stood at 1% and the “RENAL MEMBRANES Canine Activity (AC)” value came to 43%. In addition, the “BONE CELLS Human(SaOS-2) Potency (AC)” value in test [2] amounted to 5%. In addition, in test [2] (setting [10]), the “BONE CELLS Human(SaOS-2) Activity (AC)” value was determined as 100%. Moreover, the “BONE CELLS Rat(UMR-106) Potency (B)” value in [3] is listed as 1%. Moreover, the “BONE CELL MEMBRANES Human SaOS-2 Potency (AC)” value in [4] is recorded as 11%. The “BONE CELL MEMBRANES Human SaOS-2 Activity (AC)” value in test [4] (Table 5B, hPTH(1-34) = 100) came out at 14%. Also, the “KIDNEY CELLS (CK) Potency (AC)” value in test [5] is 13%. Moreover, the “RENAL MEMBRANES Canine Potency (B)” value in test [6] stood at 4%. Further, in test [7], the “KIDNEY CELLS (CK) Potency (B)” value was found to be 6% and the “potency of native [ser^3]HPTH(1-34) retained in binding to PTH receptors” value is recorded as 5-15%. In [8], the “BONE CELLS Rat(UMR-106) Potency (AC)” value amounted to 4% and the “BONE CELLS Rat(UMR-106) Activity (AC)” value stood at 100%.

Turning to `CC[C@H](C)[C@H](NC(=O)[C@H](CCC(=O)O)NC(=O)[C@H](CO)NC(=O)[C@@H](NC(=O)[C@@H](N)CO)C(C)C)C(=O)N[C@@H](CCC(N)=O)C(=O)N[C@@H](CC(C)C)C(=O)N[C@@H](CCSC)C(=O)N[C@@H](Cc1c[nH]cn1)C(=O)N[C@@H](CC(N)=O)C(=O)N[C@@H](CC(C)C)C(=O)NCC(=O)N[C@@H](CCCCN)C(=O)N[C@@H](Cc1c[nH]cn1)C(=O)N[C@@H](CC(C)C)C(=O)N[C@@H](CC(N)=O)C(=O)N[C@@H](CO)C(=O)N[C@@H](CCSC)C(=O)N[C@@H](CCC(=O)O)C(=O)N[C@@H](CCCNC(=N)N)C(=O)N[C@H](C(=O)N[C@@H](CCC(=O)O)C(=O)N[C@@H](Cc1c[nH]c2ccccc12)C(=O)N[C@@H](CC(C)C)C(=O)N[C@@H](CCCNC(=N)N)C(=O)N[C@@H](CCCCN)C(=O)N[C@@H](CCCCN)C(=O)N[C@@H](CC(C)C)C(=O)N[C@@H](CCC(N)=O)C(=O)N[C@@H](CC(=O)O)C(=O)N[C@H](C(=O)N[C@@H](Cc1c[nH]cn1)C(=O)N[C@@H](CC(N)=O)C(=O)N[C@@H](Cc1ccccc1)C(=O)O)C(C)C)C(C)C` [hPTH (1-34), hPTH(1-34), reference compound], in [1], the “RENAL MEMBRANES Canine Potency (AC)” value came out at 100% and the “RENAL MEMBRANES Canine Activity (AC)” value was determined as 100%. For the same compound, the “RENAL MEMBRANES Canine Activity (AC*)” value in test [1] (Table 1(A), large doses, relative to hPTH(1-34) = 100%) is given as 100%. In addition, in test [3], the “BONE CELLS Rat(UMR-106) Potency (B)” value was determined as 100% and the “UMR106-H5 CELLS Rat Bone Potency (B)” value stood at 100%. In addition, the “KIDNEY CELLS (CK) Potency (AC)” value in test [5] (setting [10]) is given as 100%. Besides, the “RENAL MEMBRANES Canine Potency (B)” value in test [6] amounted to 100%. The “KIDNEY CELLS (CK) Potency (B)” value in [7] (setting [10]) was 100%. In test [8], the “BONE CELLS Rat(UMR-106) Potency (AC)” value was 100%, the “UMR106-H5 CELLS Rat Bone Potency (AC)” value was determined as 100% and the “BONE CELLS Rat(UMR-106) Activity (AC)” value is 100%. The “UMR106-H5 CELLS Rat Bone Activity (AC*)” value in test [8] (Table 1(A), relative to hPTH(1-34) = 100%) is on record as 100%.

On to [Gln^22, Lys^28, Leu^30 hPTH(1-34), for which the “loss of biological activity” value in [9] (Ref. 49, 50) is reported as 10-50 fold.

For [SOMet^18 ]bPTH(1-84), the “activity of the native hormone retained” value in test [9] (Ref. 49) is listed as around 50%.

The values above are taken from patent publication US5849695A, “Parathyroid hormone analogues useful for treatment of osteoporosis and disorders of calcium meatabolism in mammals” (The Regents of the University of California, priority 1993, dated 1998).
